# Reference: paper PMC9785492 (Viruses, 2022)
# Read-outs that look alike come from different tables or passages of the source.
# What was measured:
# [1] = system: influenza A virus (A/Puerto Rico/8/34); experiment: microbe, parasite or virus in culture; settings: MDCK, read-out: IC50, Inhibition of A/Puerto Rico/8/34 Infection
# in vitro = settings: dog
# [2] = system: influenza A virus (A/Puerto Rico/8/34); settings: for IC50: read-out: IC50, Inhibition of A/Puerto Rico/8/34 Infection, MDCK cells, 100 TCID50, MTT-based, 48 h post-infection
# Cytotoxicity MTT assay = settings: dog, MDCK cells
# [3] = system: IAV proteins NP and PB2, NP mRNA; type: cell-based; settings: MDCK cells
# A/WSN/33 (H1N1) = experiment: microbe, parasite or virus in culture; type: cell-based, Influenza A virus (H1N1); settings: Influenza A virus, MDCK
# [4] = system: vesicular stomatitis virus G (VSV-G) PsV; type: cell-based
# [5] = system: clathrin-mediated endocytosis in A549 cells; experiment: Fluorescence confocal assay, Tf-568 uptake; type: cell-based, human; settings: 20 μM, 3 h pre-treatment
# [6] = system: H5N1 pseudovirus A/Xinjiang/1/2006; experiment: organism not typed; type: cell-based, H5N1 IAV
# [7] = system: H5N1 pseudovirus A/Anhui/1/2005; experiment: organism not typed; type: cell-based, H5N1 IAV
# [8] = system: influenza viral polymerase activity; type: cell-based, Influenza A virus
# [9] = system: H5N1 pseudovirus A/Hong Kong/156/1997; experiment: organism not typed; type: cell-based, H5N1 IAV
# [10] = system: H5N1 pseudovirus A/Qinghai/59/2005; experiment: organism not typed; type: cell-based, H5N1 IAV
# [11] = system: clathrin-associated uptake of transferrin in A549 cells; experiment: Transferrin absorption test; settings: pretreated 3 h, transferrin 15 µg/mL 30 min, Western blotting
# [12] = system: IAV replication in A549 cells; type: cell-based; settings: viral protein and gene
# A/FM-1/1/47 (H1N1) = experiment: microbe, parasite or virus in culture; type: cell-based; settings: Influenza A virus, H1N1, MDCK
# A/Aichi/2/68 (H3N2) = experiment: microbe, parasite or virus in culture; type: cell-based; settings: Influenza A virus, H3N2, MDCK
# caveolin-1 = type: cell-based, human
# [13] = system: IAV-induced Ca2+ influx in A549 cells; experiment: Intracellular Ca2+ level during IAV infection (BBcellProbeTMF3); type: cell-based, human; settings: A/WSN/33
# [14] = system: caveolin-mediated endocytosis in A549 cells; type: cell-based, human
compound,measurement,setting,value
COCCOC(=O)C1=C(C)NC(C)=C(C(=O)OC/C=C/c2ccccc2)C1c1cccc([N+](=O)[O-])c1 (centres unmarked) [Cilnidipine],IC50,[1]; 48 h,14.3 ± 2.66 µM
same,CC50 at 48 h,in vitro,> 200 µM
same,SI (CC50/ IC50),[2]; A/Puerto Rico/8/34,>14.02
CCOC(=O)C1=C(C)NC(C)=C(C(=O)OC)C1c1cccc([N+](=O)[O-])c1 (centres unmarked) [Nitrendipine],CC50 at 48 h,Cytotoxicity MTT assay,171 ± 14.1 µM
same,SI (CC50/ IC50),[2],23.56
same,IC50,[2],7.26 ± 1.89 µM
COC(=O)C1=C(C)NC(C)=C(C(=O)OCC(C)C)C1c1ccccc1[N+](=O)[O-] (centres unmarked) [Nisoldipine],expression of IAV proteins NP and PB2,"[3]; Western blotting, dose-dependent",significantly inhibited
same,NP mRNA expression,[3]; qRT-PCR,decreased
same,IC50,A/WSN/33 (H1N1),4.47 ± 0.25 µM
same,inhibition of VSV-G PsV infection,[4],much less efficiency
same,transferrin (Tf-568) uptake,[5],decreased
same,IC50,[6],3.87 ± 0.51 µM
same,IC50,[7],2.59 ± 0.46 µM
same,influenza viral polymerase activity,[8],did not affect
same,IC50,[9],4.47 ± 0.47 µM
same,IC50,[10],5.84 ± 0.64 µM
same,internalization of transferrin,[11],markedly reduced
same,IAV replication in A549 cells,[12],interfered with IAV replication
same,IC50,A/FM-1/1/47 (H1N1),6.96 ± 0.78 µM
same,CC50 at 48 h,Cytotoxicity MTT assay,> 200 µM
same,IC50,A/Aichi/2/68 (H3N2),5.68 ± 0.61 µM
same,expression of caveolin-1,caveolin-1,reduce the expression of caveolin-1
same,IAV-induced Ca2+ influx,[13],inhibited
same,IC50,[2],4.74 ± 0.76 µM
same,CTB-FITC endocytosis (immunostaining),[14],less immunostaining
CC(=O)N[C@H]1[C@H]([C@H](O)[C@H](O)CO)OC(C(=O)O)=C[C@@H]1N=C(N)N [Zanamivir],IC50,[1],0.00126 ± 0.0003 µM
same,CC50 at 48 h,Cytotoxicity MTT assay,> 0.2 µM
same,SI (CC50/ IC50),[2],>158.73
COCCOC(=O)C1=C(C)NC(C)=C(C(=O)OC(C)C)C1c1cccc([N+](=O)[O-])c1 (centres unmarked) [Nimodipine],CC50 at 48 h,Cytotoxicity MTT assay,> 200 µM
same,SI (CC50/ IC50),[2],>15.58
same,IC50,[2],12.8 ± 1.72 µM
methyl-β-cyclodextrin [MβCD],CTB-FITC endocytosis (immunostaining),[14],less immunostaining
